# Source: article PMC12457078, “Inhibition of soluble epoxide hydrolase in endotoxin induced pig lung injury” (Frontiers in Pharmacology, 2025)
# Values joined by “and” are separate entries in the source; they are usually repeats but may differ in a detail not shown here. Equal values may be shown once.
# Tested on: sEH
# Experiment: oxylipin analysis, epoxide/diol ratios (target engagement)
# Type: in vivo, pig
# Set-up: 14,15-DiHETE: unit not given beside the values; 12,13-DiHOME / 9,10-DiHODE / 11,12-DiHETrE / 14,15-DiHETrE / 10,11-DiHDPE / 19,20-DiHDPE / 13-HODE / 5-HETE / 11-HETE / 12-HETE / 5-HEPE / 9(10)-EpOME / 12(13)-EpOME / EKODE / 11(12)-EpETE: unit not given here
# Details: for 9,10,13-TriHOME / 9,12,13-TriHOME: bad chromatography; for 14,15-DiHETE: high blanks
# Method: All animals were monitored with pulse oximetry, heart rate, ECG, systemic arterial blood pressure (ABP), pulmonary arterial pressure (PAP), central venous pressure (CVP) temperature, tidal volumes, respiratory rate and end tidal carbon dioxide. At baseline, and at 3 h, 6 h and at the end of the experiment, pulmonary capillary wedge pressure (PCWP) was measured together with arterial and venous blood gas analyses, as well as cardiac output calculations. Routine chemistry, including creatinine, bilirubin, glucose, electrolytes were collected at baseline and at the end of the experiment (Vetscan VS2®, Abaxis, Griesheim, Germany). Blood samples for measurement of AEPU plasma concentrations, as well as oxylipins (i.e., EpETrEs and their DiHETrE corresponding diols as well as related compounds with other polyunsaturated fatty acid precursors), were collected at baseline, 6 h and at the end of the experiment.
# This meant nine subjects in each group to achieve 90% power of detecting a difference of this size given α = 0.05. Anticipating that not all experiments would reach completion, we used a sample size of 22. The results were analyzed using SPSS Statistics, version 24 (IBM Corp., Armonk, N.Y., United States). Normality was examined with the Shapiro-Wilk test, together with examination of histograms of data. Continuous variables were compared using Student’s t-test or Mann Whitney U test, as appropriate. Categorical variables were compared using Fischer’s exact test. Statistical significance was set at α < 0.05. Oxylipins with at least 80% of observations above limit of detection at both timepoints were included in pairwise comparisons of ratios and fold-change evaluations where observations below limit of detection (LOD) were substituted with 0.5 x LOD.
compound,measurement,setting,value
CCOCCOCCOCCCCCNC(=O)NC12CC3CC(CC(C3)C1)C2 [sEH-i],13-HOTrE,"time 0, individual pigs",1.38 and 2.03 and 0.71 and 0.95 and 0.65
same,13-oxo-ODE,"time 0, individual pigs",<LOD
same,14(15)-EpETE,"time 0, individual pigs",<LOD
same,14(15)-EpETrE,"time 0, individual pigs",<LOD
same,"14,15-DiHETrE","time 0, individual pigs",0.82 and 0.55 and 0.35 and 0.43 and 0.51
same,15(16)-EpODE,"time 0, individual pigs",12.33 and 9.22 and 4.38 and 5.90 and 3.04
same,"15,16-DiHODE","time 0, individual pigs",22.17 and 16.83 and 10.14 and 20.63 and 11.96
same,15-HEPE,"time 0, individual pigs",<LOD
same,15-HETE,"time 0, individual pigs",0.31 and 0.33 and 0.20 and 0.29 and 0.16
same,15-HETrE,"time 0, individual pigs",0.19 and 0.21 and 0.13 and 0.18 and 0.10
same,15-oxo-ETE,"time 0, individual pigs",0.03 and <LOD and 0.043 and 0.0266
same,16(17)-EpDPE,"time 0, individual pigs",<LOD
same,"16,17-DiHDPE","time 0, individual pigs",0.10 and 0.0746 and 0.0252 and 0.0444 and 0.03
same,17(18)-EpETE,"time 0, individual pigs",<LOD
same,"17,18-DiHETE","time 0, individual pigs",0.69 and 0.45 and 0.26 and 0.66 and 0.46
same,17-HDoHE,"time 0, individual pigs",<LOD
same,19(20)-EpDPE,"time 0, individual pigs",<LOD
same,"19,20-DiHDPE","time 0, individual pigs",1.19 and 0.80 and 0.30 and 1.02 and 0.43
same,20-HETE,"time 0, individual pigs",0.11 and 0.12 and 0.0652 and 0.10 and 0.0444
same,EKODE,"time 0, individual pigs",0.36 and 0.27 and 0.38 and 0.31 and 0.33
same,LTB4,"time 0, individual pigs",<LOD and 0.17
same,PGD2,"time 0, individual pigs",<LOD
same,PGE2,"time 0, individual pigs",<LOD
same,PGF2a,"time 0, individual pigs",<LOD and 0.0428
same,Resolvin D1,"time 0, individual pigs",<LOD
same,Resolvin D2,"time 0, individual pigs",<LOD
same,TXB2,"time 0, individual pigs",0.0943 and 0.19 and 0.08601 and 0.18
same,"9,10,13-TriHOME","time 0, individual pigs",3.66 and 5.50 and 4.37 and 4.76 and 5.61
same,"9,12,13-TriHOME","time 0, individual pigs",<LOD
same,"14,15-DiHETE","time 0, individual pigs",0.1158 and 0.09583 and 0.02876 and 0.02655 and 0.09648
same,5(6)-EpETrE,"time 6, individual pigs",<LOD
same,"5,6-DiHETrE","time 6, individual pigs",<LOD
same,5-HEPE,"time 6, individual pigs",0.06 and 0.18 and <LOD and 0.07 and 0.05
same,5-HETE,"time 6, individual pigs",0.3567 and 0.58 and 0.2089 and 0.4225 and 0.4419
same,5-oxo-ETE,"time 6, individual pigs",0.11 and 0.18 and <LOD and 0.14 and 0.15
same,7(8)-EpDPE,"time 6, individual pigs",<LOD
same,"7,8-DiHDPE","time 6, individual pigs",<LOD
same,8(9)-EpETE,"time 6, individual pigs",<LOD
same,8(9)-EpETrE,"time 6, individual pigs",<LOD
same,"8,9-DiHETE","time 6, individual pigs",<LOD
same,"8,9-DiHETrE","time 6, individual pigs",0.10 and 0.07 and <LOD and 0.0449
same,8-HETE,"time 6, individual pigs",0.07 and 0.09 and 0.04 and 0.12 and 0.0759
same,9(10)-EpODE,"time 6, individual pigs",0.63 and 0.49 and 0.36 and 0.35 and 0.42
same,9(10)-EpOME,"time 6, individual pigs",1.87 and 1.33 and 0.60 and 1.51 and 2.48
same,"9,10-DiHODE","time 6, individual pigs",0.64 and 1.20 and 1.17 and 0.73 and 0.69
same,"9,10-DiHOME","time 6, individual pigs",5.75 and 8.57 and 9.02 and 5.97
same,9-HETE,"time 6, individual pigs",<LOD
same,9-HODE,"time 6, individual pigs",13.28 and 24.06 and 22.88 and 16.64 and 15.68
same,9-HOTrE,"time 6, individual pigs",1.36 and 2.59 and 1.91 and 1.50 and 0.95
same,9-oxo-ODE,"time 6, individual pigs",<LOD
same,10(11)-EpDPE,"time 6, individual pigs",<LOD
same,"10,11-DiHDPE","time 6, individual pigs",0.07 and 0.03 and 0.0327 and 0.02 and 0.0362
same,11(12)-EpETE,"time 6, individual pigs",0.1179 and 0.09737 and 0.1269 and 0.06515 and 0.0705
same,11(12)-EpETrE,"time 6, individual pigs",0.05 and 0.0441 and 0.0274 and 0.0271
same,"11,12-DiHETE","time 6, individual pigs",0.0351 and 0.0319 and 0.0666 and 0.03 and 0.05
same,"11,12-DiHETrE","time 6, individual pigs",0.86 and 0.62 and 1.36 and 0.66 and 0.92
same,11-HETE,"time 6, individual pigs",0.42 and 0.30 and 0.66 and 0.25 and 0.40
same,12(13)-EpODE,"time 6, individual pigs",1.12 and 0.79 and 0.95 and 0.91
same,12(13)-EpOME,"time 6, individual pigs",5.25 and 4.08 and 1.60 and 5.63 and 7.56
same,"12,13-DiHODE","time 6, individual pigs",1.01 and 1.89 and 1.53 and 1.48 and 1.36
same,"12,13-DiHOME","time 6, individual pigs",16.00 and 24.72 and 21.84 and 22.49 and 19.00
same,12-HEPE,"time 6, individual pigs",0.08 and 0.11 and 0.06 and 0.0632 and 0.04
same,12-HETE,"time 6, individual pigs",1.11 and 0.86 and 0.59 and 0.65 and 0.46
same,12-oxo-ETE,"time 6, individual pigs",<LOD
same,13(14)-EpDPE,"time 6, individual pigs",<LOD
same,"13,14-DiHDPE","time 6, individual pigs",0.15 and 0.10 and 0.13 and 0.06
same,13-HODE,"time 6, individual pigs",42.16 and 101.75 and 49.69 and 56.11 and 42.57
same,13-HOTrE,"time 6, individual pigs",1.94 and 6.77 and 3.06 and 2.84 and 1.84
same,13-oxo-ODE,"time 6, individual pigs",<LOD and 5.47
same,14(15)-EpETE,"time 6, individual pigs",<LOD
same,14(15)-EpETrE,"time 6, individual pigs",<LOD and 0.0855 and 0.08
same,"14,15-DiHETrE","time 6, individual pigs",1.69 and 1.48 and 1.65 and 0.72 and 0.63
same,15(16)-EpODE,"time 6, individual pigs",24.31 and 29.46 and 11.19 and 30.59 and 26.51
same,"15,16-DiHODE","time 6, individual pigs",54.83 and 45.60 and 30.98 and 42.25 and 33.76
same,15-HEPE,"time 6, individual pigs",<LOD
same,15-HETE,"time 6, individual pigs",0.63 and 0.86 and 0.43 and 0.48
same,15-HETrE,"time 6, individual pigs",0.41 and 0.47 and 0.48 and 0.37 and 0.39
same,15-oxo-ETE,"time 6, individual pigs",0.0346 and <LOD and 0.03 and 0.0128
same,16(17)-EpDPE,"time 6, individual pigs",<LOD
same,"16,17-DiHDPE","time 6, individual pigs",0.19 and 0.20 and 0.14 and 0.0527 and 0.085
same,17(18)-EpETE,"time 6, individual pigs",<LOD
same,"17,18-DiHETE","time 6, individual pigs",1.22 and 1.33 and 1.55 and 0.59 and 1.01
same,17-HDoHE,"time 6, individual pigs",<LOD
same,19(20)-EpDPE,"time 6, individual pigs",<LOD
same,"19,20-DiHDPE","time 6, individual pigs",1.72 and 1.58 and 1.48 and 0.68 and 0.62
same,20-HETE,"time 6, individual pigs",0.11 and 0.12 and 0.08 and 0.10
same,EKODE,"time 6, individual pigs",0.88 and 0.74 and 0.47 and 0.87 and 1.05
same,LTB4,"time 6, individual pigs",<LOD and 0.28 and 0.38 and 0.18 and 0.43
same,PGD2,"time 6, individual pigs",<LOD and 0.01 and 0.00656
same,PGE2,"time 6, individual pigs",0.095 and 0.06 and 0.20 and <LOD and 0.12
same,PGF2a,"time 6, individual pigs",1.61 and 0.65 and 4.40 and 0.44 and 2.56
same,Resolvin D1,"time 6, individual pigs",<LOD
same,Resolvin D2,"time 6, individual pigs",<LOD
same,TXB2,"time 6, individual pigs",2.92 and 3.83 and 2.22 and 1.21 and 1.79
same,"9,10,13-TriHOME","time 6, individual pigs",2.86 and 3.12 and 7.92 and 7.73 and 5.56
same,"9,12,13-TriHOME","time 6, individual pigs",<LOD and 0.24
same,"14,15-DiHETE","time 6, individual pigs",0.3645 and 0.4177 and 0.09663 and 0.04163 and 0.2578
